Source: patent US20080069809A1, “Compositions and methods for the diagnosis and treatment of cancer” (priority 2006, published 2008)

Legend:
Format in all cases: cell-based
[1] = tested on: HL60; experiment: Apoptosis (sub-G1 DNA by FACS, caspase-3 activation) in HL60 leukemic cells
Experimental: The myeloid leukemic cell lines HL60, NB60, NB4, U937, K562 and KG1a were all grown in RPMI 1640 medium (Life Technologies, Paisley, United Kingdom) supplemented with 10% v/v fetal calf serum (Sear Laboratories International Crawley, United Kingdom), 100 U/mL penicillin, and 100 μg/mL streptomycin (Sigma Aldrich, Poole, United Kingdom) at 37° C. and 5% v/v CO2. AML blasts were isolated from patient bone marrow aspirates and peripheral blood of eight patients at diagnosis or relapse. Patients were not receiving AML therapy at time of sampling. Blasts were isolated by Ficoll density centrifugation and were cultured in serum-free insulin transferrin selenium-positive (ITS+) medium (Life Technologies) containing 300 ng/mL stem cell factor (SCF) and 10 ng/mL interleukin 3 (IL3; R and D Systems, Abingdon, United Kingdom) and antibiotics. […] Normal myeloblasts were isolated from cord blood or adult mobilized peripheral blood. Briefly, CD34^+ cells were indirectly selected from the mononuclear cell preparations using antibody-coated magnetic beads (Miltenyi Biotec, United Kingdom).
To determine the effects of ingenol-3-angelate (PEP005), cells were incubated for up to 5 days with medium alone or PEP005 at a range of concentrations from 0.2 nM to 20 μM. PEP005 was extracted from Euphorbia peplus and supplied as a 98.5% pure preparation by Peplin Limited (Brisbane, Australia) as a dry pellet and was made up to a stock of […] in acetone on a weekly basis. Stocks were stored at 4° C. and diluted into medium when required. Final acetone concentration was never more than 0.1% v/v. Apoptosis and differentiation were assessed after 1 to 5 days.

[2] = tested on: caspase-3; experiment: Caspase-3 phosphorylation in 32PO4-labeled HL60 cells; conditions: 20 nM PEP005 and 5 μM rottlerin
Experimental: To determine if PEP005 induced caspase-3 phosphorylation, HL60 cells were incubated with 1.5×10^7 Bq/mL ^32PO4 (Amersham Pharmacia) in phosphate-free medium for 3 hours prior to addition of 20 nM PEP005 or PEP005 and 5 μM rottlerin (Calbiochem, Nottingham, United Kingdom). Cells were then lysed and caspase-3 was immunoprecipitated with an anti-caspase-3 antibody (BD Pharmingen, Oxford, United Kingdom) or an irrelevant isotype-matched control antibody (DAKO) and the immunoprecipitate was isolated using an anti-mouse immunoglobulin G (IgG) antibody (DAKO) and protein G-coated magnetic beads (microbeads; Miltenyi Biotech). The isolate was taken up in SDS sample buffer and run on a 10% w/v SDS-polyacrylamide gel electrophoresis (PAGE) gel and the labeled proteins were visualized using a phosphorimager.

[3] = molecular target: T1, PKC-δ (Homo sapiens, UniProt Q05655); experiment: PKC-δ activation by translocation (cell fractionation, Western blotting) in HL60 cells; conditions: 20 nM PEP005 or 20 nM PMA, 10 minutes
T1 construct: endogenous in cells; host or cells: HL60
T1 sequence (Q05655 whole entry): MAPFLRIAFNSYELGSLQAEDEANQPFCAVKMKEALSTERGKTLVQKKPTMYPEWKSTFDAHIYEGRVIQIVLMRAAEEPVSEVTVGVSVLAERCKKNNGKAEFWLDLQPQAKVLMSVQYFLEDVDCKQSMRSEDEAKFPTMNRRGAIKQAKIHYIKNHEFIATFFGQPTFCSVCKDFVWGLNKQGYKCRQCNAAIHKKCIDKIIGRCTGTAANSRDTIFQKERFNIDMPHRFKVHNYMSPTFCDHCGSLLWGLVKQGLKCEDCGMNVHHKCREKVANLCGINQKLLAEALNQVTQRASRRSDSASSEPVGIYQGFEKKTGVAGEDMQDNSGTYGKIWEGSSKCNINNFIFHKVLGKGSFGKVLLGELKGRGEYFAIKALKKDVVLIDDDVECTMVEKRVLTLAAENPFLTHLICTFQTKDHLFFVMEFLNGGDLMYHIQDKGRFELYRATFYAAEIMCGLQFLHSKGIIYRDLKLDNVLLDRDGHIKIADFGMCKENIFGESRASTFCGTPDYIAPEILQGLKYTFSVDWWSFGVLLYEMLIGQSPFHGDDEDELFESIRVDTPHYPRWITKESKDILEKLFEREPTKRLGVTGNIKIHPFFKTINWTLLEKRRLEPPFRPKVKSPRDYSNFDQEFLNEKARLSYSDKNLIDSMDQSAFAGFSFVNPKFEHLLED
Experimental: PKC translocates from the soluble to the particulate fraction of cells when activated and this method was used to assess activation of PKC-δ by PEP005 and PMA. Briefly, cells were incubated for 10 minutes in medium alone or 20 nM PEP005 or 20 nM PMA, washed twice in phosphate buffered saline (PBS) and then lysed by homogenization in hypotonic lysis buffer in the absence of detergent. Lysis was checked using trypan blue uptake. Nuclei were isolated by centrifugation at 1000 g for 10 minutes. Centrifugation at 100,000 g for 45 minutes at 4° C. was used to isolate the cytosol (supernatant) and cell membrane (pellet) fractions. All were taken up in SDS sample buffer and analyzed for PKC-δ by Western blotting.

[4] = tested on: HL60; experiment: Phagocytosis of complement-coated yeast by HL60 cells; conditions: after 3 days of treatment, PMA 20 nM
Experimental: Cell differentiation was determined by staining of cells with anti-CD11b antibody as a general early marker of myeloid differentiation. In studies with HL60 cells, PEP005-treated and 20 nM phorbol myristate (PMA)-treated (Sigma Aldrich) cells were also assessed for their ability to phagocytose complement-coated yeast, a marker of a fully differentiated myeloid cell, as previously described (Toksoz et al, Leukemia Res 6:491-498, 1982). The ingestion of three or more yeasts was taken as a positive result. In normal cord blood or adult bone marrow myeloblasts, loss of CD34 was taken as a marker of differentiation. Isotype-matched controls were used and all antibodies were from DAKO (Cambridge, United Kingdom). […] Cells were also used to prepare cytospins, which were then differentially stained using a commercial May-Grünwald-Ginesa stain (Diff-Kwik; Gamidor, Abingdon, United Kingdom) to identify cells with a blast or differentiated or apoptotic morphology. Slides were examined using a Zeiss III RS brightfield microscope equipped with a 40×/0.75 water-immersion objective (Carl Zeiss, Jena, Germany). Images were captured with a SPOT2 cameria (Diagnostic Instructions, Sterling Heights, Mich.) and analyzed using Image-Pro 4.0 software (Media Cybernetics, Silver Spring, Md.).

[5] = tested on: KG1a; experiment: Differentiation (CD11b expression) in KG1a cells; conditions: agent alone
Experimental: The myeloid leukemic cell lines HL60, NB60, NB4, U937, K562 and KG1a were all grown in RPMI 1640 medium (Life Technologies, Paisley, United Kingdom) supplemented with 10% v/v fetal calf serum (Sear Laboratories International Crawley, United Kingdom), 100 U/mL penicillin, and 100 μg/mL streptomycin (Sigma Aldrich, Poole, United Kingdom) at 37° C. and 5% v/v CO2. AML blasts were isolated from patient bone marrow aspirates and peripheral blood of eight patients at diagnosis or relapse. Patients were not receiving AML therapy at time of sampling. Blasts were isolated by Ficoll density centrifugation and were cultured in serum-free insulin transferrin selenium-positive (ITS+) medium (Life Technologies) containing 300 ng/mL stem cell factor (SCF) and 10 ng/mL interleukin 3 (IL3; R and D Systems, Abingdon, United Kingdom) and antibiotics. Blast purity ranged from 80% to 95%, as assessed by expression of CD34. Normal myeloblasts were isolated from cord blood or adult mobilized peripheral blood. Briefly, CD34^+ cells were indirectly selected from the mononuclear cell preparations using antibody-coated magnetic beads (Miltenyi Biotec, United Kingdom).
Cell differentiation was determined by staining of cells with anti-CD11b antibody as a general early marker of myeloid differentiation. In studies with HL60 cells, PEP005-treated and 20 nM phorbol myristate (PMA)-treated (Sigma Aldrich) cells were also assessed for their ability to phagocytose complement-coated yeast, a marker of a fully differentiated myeloid cell, as previously described (Toksoz et al, Leukemia Res 6:491-498, 1982). The ingestion of three or more yeasts was taken as a positive result. In normal cord blood or adult bone marrow myeloblasts, loss of CD34 was taken as a marker of differentiation. Isotype-matched controls were used and all antibodies were from DAKO (Cambridge, United Kingdom). […] Images were captured with a SPOT2 cameria (Diagnostic Instructions, Sterling Heights, Mich.) and analyzed using Image-Pro 4.0 software (Media Cybernetics, Silver Spring, Md.).

For `CN(C)CCCn1cc(C2=C(c3c[nH]c4ccccc34)C(=O)NC2=O)c2ccccc21` [bisindolylmaleimide I, reference compound], the “inhibition of PEP005-induced apoptosis (caspase-3 activation)” value ([1]; 20 nM PEP005 with 1 μM Bis-1 or 20 nM Go6976) was “inhibited”.
In the case of `CC(=O)c1c(O)c(C)c(O)c(Cc2c(O)c3c(c(C(=O)/C=C/c4ccccc4)c2O)OC(C)(C)C=C3)c1O` [rottlerin, reference compound], the “effect on PEP005-induced caspase-3 phosphorylation” value [2] is reported as “ablated”.
`CCCCCCCCCCCCCC(=O)O[C@@H]1[C@@H](C)[C@@]2(O)[C@@H](C=C(CO)C[C@]3(O)C(=O)C(C)=C[C@@H]23)[C@@H]2C(C)(C)[C@]12OC(C)=O` [PMA, phorbol myristate, reference compound] was tested, and the “site of initial PKC-δ translocation” value [3] was “only to the cell membrane”, the “apoptosis (caspase-3 activity)” value ([1]; after 3 days of treatment, PMA 20 nM) was “no increase in apoptosis” and the “differentiation to phagocytes (ability to phagocytose yeast)” value [4] was “induced differentiation of HL60 cells toward phagocytes”.
For `CC1=C(/C=C/C(C)=C/C=C/C(C)=C/C(=O)O)C(C)(C)CCC1` [ATRA, all-trans retinoic acid, reference compound], the differentiation response [5] was “did not respond”.
